Consider eleven compounds from publication PMC5035006, “Binding and Inhibition of Spermidine Synthase from Plasmodium falciparum and Implications for In Vitro Inhibitor Testing” (PLoS ONE, 2016).

Several values for one entry are separate records, joined by “and”; a condition that tells them apart may be missing. Equal entries are not always repeated. Where two headings read alike, the source gives them in different places. A value given as a limit tells only on which side of the number the result lay.

Test [1] has as its target T1, PfSpdS (Plasmodium falciparum, UniProt Q8II73). The test is described as follows: biochemical. It is filed as binding. As for the experimental part:
Protein samples of 1 mg/ml were dialyzed overnight at 4°C against buffer containing 100 mM HEPES, pH 7.5, 250 mM NaCl. Protein concentration was determined by UV absorption (A280 = 1 for 1.3 mg/mL) immediately before loading into the calorimeter cell. […] The protein at a concentration of 0.8–30 μM was loaded into the sample cell of a VP-ITC microcalorimeter (MicroCal, Inc.). All measurements were performed at 25°C with 25 injections of the ligand of 10 μl each delivered in 20 s with 240 s delays between injections. […] Titrations of ligands into dialysis buffer were performed additionally and in case of non-negligible dilution heat the dilution profile(s) were subtracted point-by-point from the reaction profile. The dilution factor was taken into account for the binding curve fitting. Prior to titration of a second ligand into protein in presence of a first ligand, titration of dcAdoMet or MTA was carried out to saturating concentrations. […] The ligand- and buffer-subtracted integrated binding data were fitted using a single-site binding model in MicroCal Origin software.
The solution conditions for which the reported parameter values apply are 100 mM HEPES pH 7.5, 250 mM NaCl, 25°C.

In test [2] the target is T1, PfSpdS. Conditions: cited from earlier work.
For test [3], the target named is T1, PfSpdS. The test is described as follows: biochemical. Conditions: for inhibitory effects on PfSpdS activity: at concentrations of 0.1 or 1 mM, data not shown. As for the experimental part: The enzyme assays were incubated for 30 min at 37°C and terminated by addition of 100 μl of 0.4 M HClO4. The amount of spermidine formed was determined by HPLC with θ-phthaldialdehyde as the reagent essentially as described by Seiler & Knödgen.
Determination of IC50 values was performed in standard assays containing increasing concentrations of inhibitors.

For a further test, the system named is mammalian SpdS. The note with it: cited from earlier work.
A further test deals with P. falciparum. Also noted: method as in PMID 15913804. The note with it: at micromolar concentrations; cited from earlier work.
Test [4] has as its target T1, PfSpdS. On the set-up: method as in PMID 18410081. The note with it: cited from earlier work.
The target of a further test is human SpdS. Also noted: method as in PMID 21898642. The note with it: 20 mM sodium phosphate pH 7.5, 50 mM NaCl, 25°C; cited from earlier work.
[5] abbreviates: free PfSpdS, 100 mM HEPES pH 7.5, 250 mM NaCl, 25°C.
Setting [6] is: free PfSpdS, 100 mM HEPES pH 7.5, 250 mM NaCl, 25°C, read-out: KD.
Setting [7] is: PfSpdS saturated with MTA (ligand 1), values for ligand 2.
[8] abbreviates: PfSpdS saturated with MTA (ligand 1), values for ligand 2, read-out: KD.
Where [9] appears, read: KD, PfSpdS saturated with MTA (ligand 1), values for ligand 2.
Setting [10] is: KD, free PfSpdS, 100 mM HEPES pH 7.5, 250 mM NaCl, 25°C.
Setting [11] is: free PfSpdS, listed as with footnote mark a.
The mark [12] stands for this setting: free PfSpdS, listed as with footnote mark b: fit was done setting N = 1.

T1 sequence (Q8II73 entry or part of it): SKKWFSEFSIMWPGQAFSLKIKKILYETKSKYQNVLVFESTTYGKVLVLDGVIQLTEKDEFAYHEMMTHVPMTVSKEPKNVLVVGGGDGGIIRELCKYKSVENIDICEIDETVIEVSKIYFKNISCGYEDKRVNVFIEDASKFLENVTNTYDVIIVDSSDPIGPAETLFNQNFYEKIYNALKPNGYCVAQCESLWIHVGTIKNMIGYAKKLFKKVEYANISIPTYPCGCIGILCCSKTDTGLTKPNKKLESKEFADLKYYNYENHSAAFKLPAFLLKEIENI

The Kd is a measure of binding affinity in units of concentration. By IC50 is commonly meant the concentration needed to halve the response being measured. In the case of 5′-methylthioadenosine [MTA], at PfSpdS [1] (setting [5]), the ΔH is reported as -2.7 ± 0.3 kcal/mol and the ΔS was determined as 18.6 cal/mol/deg. Further, the Kd on PfSpdS [1] (setting [6]) stood at 0.9 ± 0.5 µM. The IC50 on PfSpdS [2] (100 μM dcAdoMet, 200 μM putrescine) is 160 µM and 159 µM. Besides, the Inhibition type entry at PfSpdS [2] is reported as “product inhibition”.
Regarding `NCc1ccc(N)cc1` [4AMA, 4-aminomethylaniline], the “affinity for free PfSpdS (in words)” value at PfSpdS [1] is given as “no measurable affinity”. Also, the ΔH on PfSpdS [1] (setting [7]) was -3.5 ± 0.2 kcal/mol. For the same compound, the ΔS at PfSpdS [1] (setting [7]) turned out to be 7.84 cal/mol/deg. Moreover, the Kd at PfSpdS [1] (setting [8]) was 45.3 ± 5.1 µM; on PfSpdS [1] (PfSpdS saturated with dcAdoMet (ligand 1), values for ligand 2, read-out: KD), above 300 µM; at PfSpdS [1] (setting [6]), above 300 µM. The “inhibitory effects on PfSpdS activity” value against PfSpdS [3] was “no or only minor inhibitory effects”. On PfSpdS [3] (read-out: IC50), the IC50 is above 1000 µM.
As usually defined, the Ki is a dissociation constant, usually derived from enzyme kinetics or from competition with a known ligand. `Cc1ccc(N)cc1` [4MAN, 4-methylaniline]: at PfSpdS [1], the “affinity for free PfSpdS (in words)” value is reported as “no measurable affinity”. The Kd is above 300 µM on PfSpdS [1] (setting [9]); 7.7 ± 1.2 µM at PfSpdS [1] (KD, PfSpdS saturated with dcAdoMet (ligand 1), values for ligand 2); above 300 µM on PfSpdS [1] (setting [10]). For the same compound, the “affinity to PfSpdS in presence of MTA (in words)” value at PfSpdS [1] (PfSpdS saturated with MTA, detection limit KD ~ 300 μM) was “no detectable affinity”. Moreover, the IC50 on PfSpdS [3] was 23 µM; in the test on mammalian SpdS, 108 µM. Further, the Ki at PfSpdS [3] amounted to 8.2 µM. Besides, the Inhibition type result at PfSpdS [3] (Lineweaver-Burke plots, 0.1 mM dcAdoMet) is recorded as “competitive with putrescine”.
`C[C@H]1CC[C@H](N)CC1` [4MCHA, trans-4-methylcyclohexylamine]: at PfSpdS [2], the Inhibition type entry is given as “competitive inhibitor with respect to putrescine” and the Ki was 0.18 µM. Also, in the test with P. falciparum, the “inhibition of P. falciparum cell growth in vitro (in words)” value is “strongly inhibit”.
In the case of `NCCCCCC(CCN)SCC1OC(n2cnc3c(N)ncnc32)C(O)C1O` (stereo not drawn) [AdoDATO, S-adenosyl-3-thio-1,8-diaminooctane], at PfSpdS [1] (setting [5]), the ΔH was -5.5 ± 0.2 kcal/mol and the ΔS stood at 6.9 cal/mol/deg. Also, the Kd at PfSpdS [1] (setting [6]) came out at 2.8 ± 0.5 µM. Moreover, at PfSpdS [3], the Inhibition type result was “mixed-type inhibition with putrescine” and the Ki uncompetitive is 12.2 µM. Moreover, the Ki on PfSpdS [3] (read-out: Ki competitive) was found to be 3.4 µM. Moreover, at PfSpdS [3] (read-out: predicted IC50 from Eq (2)), the IC50 is 10 µM.
On PfSpdS [1] (setting [5]), `NCCCCCc1nc2ccccc2[nH]1` [BIPA, 5-(1H-benzimidazol-2-yl)pentan-1-amine] had a ΔH of 1.5 ± 0.3 kcal/mol and a ΔS of 27.1 cal/mol/deg. For the same compound, the Kd at PfSpdS [1] (setting [6]) was 15.2 ± 8.2 µM. Further, the “binding to the enzyme by NMR spectroscopy (in words)” value at PfSpdS [4] is reported as “bind strongly”. At PfSpdS [3] (PfSpdS assays, L. Persson, unpublished results, read-out: IC50), the IC50 was above 100 µM. For the same compound, the “inhibitory effects on PfSpdS activity” value against PfSpdS [3] was “no or only minor inhibitory effects”. Besides, on PfSpdS [3] (read-out: IC50), the IC50 was above 1000 µM.
`NCCCN[C@H]1CC[C@H](N)CC1` [NACD]: the ΔH is recorded as -0.6 ± 0.1 kcal/mol on PfSpdS [1] (setting [7]), 51.8 ± 2.5 kcal/mol at PfSpdS [1] (setting [11]) and 17.6 ± 9.0 kcal/mol at PfSpdS [1] (setting [12]). The ΔS came to 28.4 cal/mol/deg at PfSpdS [1] (setting [7]), 196 cal/mol/deg at PfSpdS [1] (setting [11]) and 82.8 cal/mol/deg at PfSpdS [1] (setting [12]). In addition, the Kd is ~0.3 µM and 0.3 µM at PfSpdS [1] (setting [8]); 8.4 ± 0.7 µM on PfSpdS [1] (free PfSpdS, listed as with footnote mark a, read-out: KD); 6.1 ± 1.6 µM on PfSpdS [1] (free PfSpdS, listed as with footnote mark b: fit was done setting N = 1, read-out: KD).
Usually Km stands for the concentration of substrate that gives half-maximal velocity. As to `NCCCCN` [Putrescine, putrescine], the figures for the Kd on PfSpdS [1] (setting [9]) and at PfSpdS [1] (setting [10]) were 59.5 ± 8.2 µM and above 300 µM, respectively. This compound gave a ΔH on PfSpdS [1] (setting [7]) of -12.4 ± 0.9 kcal/mol. The ΔS on PfSpdS [1] (setting [7]) was -22.4 cal/mol/deg. The “affinity for free PfSpdS (in words)” value at PfSpdS [1] (free PfSpdS, detection limit KD ~ 300 μM) is on record as “no measurable affinity”. Besides, the Km on PfSpdS [2] (read-out: Km for putrescine, 29-residue-truncated PfSpdS) was 52 µM.
On to `NCCCCNCCCN` [Spermidine, spermidine], for which, on PfSpdS [1], the “affinity for free PfSpdS (in words)” value is “no measurable affinity”. Further, the Kd on PfSpdS [1] (setting [9]) is 1.2 ± 0.3 µM; on PfSpdS [1] (setting [10]) it was above 300 µM. The ΔH on PfSpdS [1] (setting [7]) is reported as -6.1 ± 0.3 kcal/mol. The same compound had a ΔS at PfSpdS [1] (setting [7]) of 6.74 cal/mol/deg.
In the case of `C[S+](CCCN)CC1OC(n2cnc3c(N)ncnc32)C(O)C1O` (stereo not drawn) [dcAdoMet, decarboxylated S-adenosylmethionine], at PfSpdS [1] (setting [10]), the Kd came out at 3.7 ± 0.7 µM. At PfSpdS [1] (setting [5]), this compound gave a ΔH of -2.4 ± 0.2 kcal/mol and a ΔS of 16.7 cal/mol/deg.
Regarding `NCCCSC[C@H]1O[C@@H](n2cnc3c(N)ncnc32)[C@H](O)[C@@H]1O` [decarboxylated S-adenosylhomocysteine], the Kd on human SpdS was 1.1 µM.
